Measured values: PubChem BioAssay AID330 (DTP/NCI, 2004)
Several values for one entry are separate records, joined by “and”; a condition that tells them apart may be missing. Equal values may be shown once. Toxic doses and inconclusive results are not listed.

Tested on: P388 leukemia ip, CD2F1 mice, survival T/C
Assay: NCI In Vivo Anticancer Drug Screen. Data for tumor model P388 Leukemia (intraperitoneal) in CD2F1 (CDF1) mice
Settings: endpoint: median survival time, higher = longer survival
Method in brief: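 Mice carrying the transplanted tumor received test compound or vehicle. Survival was recorded in each group, and the value is the treated-group measurement divided by that of the vehicle-treated control group.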

[1] = dose: 50.0 mg/kg/injection, schedule: Q01DX009 (ip), vehicle: Klucel (hydroxypropylcellulose) (HPC)
[2] = dose: 100.0 mg/kg/injection, schedule: Q01DX009 (ip), vehicle: Klucel (hydroxypropylcellulose) (HPC)
[3] = dose: 200.0 mg/kg/injection, schedule: Q01DX009 (ip), vehicle: Klucel (hydroxypropylcellulose) (HPC)
[4] = dose: 50.0 mg/kg/injection, schedule: Q01DX009 (ip), vehicle: saline with Tween-80
[5] = dose: 100.0 mg/kg/injection, schedule: Q01DX009 (ip), vehicle: saline with Tween-80
[6] = dose: 200.0 mg/kg/injection, schedule: Q01DX009 (ip), vehicle: saline with Tween-80
[7] = dose: 60.0 mg/kg/injection, schedule: Q01DX005 (ip), vehicle: saline
[8] = dose: 120.0 mg/kg/injection, schedule: Q01DX005 (ip), vehicle: saline
[9] = dose: 240.0 mg/kg/injection, schedule: Q01DX005 (ip), vehicle: saline
[10] = dose: 100.0 mg/kg/injection, schedule: Q04DX003 (ip), vehicle: saline
[11] = dose: 200.0 mg/kg/injection, schedule: Q04DX003 (ip), vehicle: saline
[12] = dose: 400.0 mg/kg/injection, schedule: Q04DX003 (ip), vehicle: saline
[13] = dose: 50.0 mg/kg/injection, schedule: Q01DX005 (ip), vehicle: saline with Tween-80
[14] = dose: 100.0 mg/kg/injection, schedule: Q01DX005 (ip), vehicle: saline with Tween-80
[15] = dose: 200.0 mg/kg/injection, schedule: Q01DX005 (ip), vehicle: saline with Tween-80
[16] = dose: 60.0 mg/kg/injection, schedule: Q01DX005 (ip), vehicle: Klucel (hydroxypropylcellulose) (HPC)
[17] = dose: 120.0 mg/kg/injection, schedule: Q01DX005 (ip), vehicle: Klucel (hydroxypropylcellulose) (HPC)
[18] = dose: 240.0 mg/kg/injection, schedule: Q01DX005 (ip), vehicle: Klucel (hydroxypropylcellulose) (HPC)

N#Cc1c(Cl)nsc1-c1ccc([N+](=O)[O-])cc1
T/C [1]: 119 % of control | T/C [2]: 92 % of control | T/C [3]: 103 % of control

CC(C)(OC(=O)NC(CC(N)=O)C(=O)O)c1ccc(N=Nc2ccccc2)cc1 (stereo not drawn)
T/C [4]: 97 % of control | T/C [5]: 92 % of control | T/C [6]: 92 % of control

CN(c1ccccc1)c1ccc([N+](=O)[O-])c2no[n+]([O-])c12
T/C (dose: 7.5 mg/kg/injection, schedule: Q01DX009 (ip), vehicle: suspension in saline): 92 % of control and 97 % of control | T/C (dose: 15.0 mg/kg/injection, schedule: Q01DX009 (ip), vehicle: suspension in saline): 92 % of control and 96 % of control | T/C (dose: 30.0 mg/kg/injection, schedule: Q01DX009 (ip), vehicle: suspension in saline): 103 % of control and 90 % of control | T/C (dose: 60.0 mg/kg/injection, schedule: Q01DX009 (ip), vehicle: suspension in saline): 110 % of control and 115 % of control

CN(C)CC#CCCCS(=O)(=O)c1ccccc1
T/C [7]: 97 % of control | T/C [8]: 99 % of control

c1ccc2c(c1)oc1cc3c(cc12)ncc1cccn13
T/C (dose: 1.56 mg/kg/injection, schedule: Q01DX005 (ip), vehicle: saline with Tween-80): 103 % of control | T/C (dose: 3.12 mg/kg/injection, schedule: Q01DX005 (ip), vehicle: saline with Tween-80): 100 % of control | T/C (dose: 6.25 mg/kg/injection, schedule: Q01DX005 (ip), vehicle: saline with Tween-80): 97 % of control | T/C (dose: 12.5 mg/kg/injection, schedule: Q01DX005 (ip), vehicle: saline with Tween-80): 90 % of control

S=C([S][Sn]([c]1ccccc1)([c]1ccccc1)[c]1ccccc1)N1CCOCC1
T/C (dose: 1.56 mg/kg/injection, schedule: Q01DX009 (ip), vehicle: saline with Tween-80): 100 % of control | T/C (dose: 3.13 mg/kg/injection, schedule: Q01DX009 (ip), vehicle: saline with Tween-80): 100 % of control and 103 % of control and 109 % of control | T/C (dose: 6.25 mg/kg/injection, schedule: Q01DX009 (ip), vehicle: saline with Tween-80): 107 % of control and 108 % of control | T/C (dose: 12.5 mg/kg/injection, schedule: Q01DX009 (ip), vehicle: saline with Tween-80): 105 % of control

C=CCSc1nc2ccc(NC(=O)/C=C/C(=O)O)cc2s1
T/C [1]: 95 % of control | T/C [2]: 93 % of control | T/C [3]: 102 % of control

O=C(O)c1c[nH]c2cc(-n3cccc3)ccc2c1=O
T/C (dose: 15.0 mg/kg/injection, schedule: Q01DX005 (ip), vehicle: saline with Tween-80): 102 % of control | T/C (dose: 30.0 mg/kg/injection, schedule: Q01DX005 (ip), vehicle: saline with Tween-80): 101 % of control | T/C (dose: 60.0 mg/kg/injection, schedule: Q01DX005 (ip), vehicle: saline with Tween-80): 102 % of control and 88 % of control

CC(C)(F)C(N)C(=O)O (stereo not drawn)
T/C [7]: 101 % of control | T/C [8]: 103 % of control | T/C [9]: 100 % of control

COc1ccc([N+](=O)[O-])c(OC(C)=O)c1OC
T/C (dose: 12.5 mg/kg/injection, schedule: Q01DX009 (ip), vehicle: other): 104 % of control | T/C (dose: 50.0 mg/kg/injection, schedule: Q01DX009 (ip), vehicle: other): 93 % of control | T/C (dose: 100.0 mg/kg/injection, schedule: Q01DX009 (ip), vehicle: other): 89 % of control | T/C (dose: 200.0 mg/kg/injection, schedule: Q01DX009 (ip), vehicle: other): 89 % of control

CN(C)C=Nc1cccnc1[N+](=O)[O-]
T/C [1]: 108 % of control | T/C [2]: 99 % of control | T/C [3]: 108 % of control

COc1cccc(OC)c1OCCBr
T/C [4]: 103 % of control | T/C [5]: 98 % of control | T/C [6]: 100 % of control

Cl/C(=N\Nc1ccccc1)c1ccccc1
T/C (dose: 3.13 mg/kg/injection, schedule: Q01DX009 (ip), vehicle: Klucel (hydroxypropylcellulose) (HPC)): 100 % of control | T/C (dose: 6.25 mg/kg/injection, schedule: Q01DX009 (ip), vehicle: Klucel (hydroxypropylcellulose) (HPC)): 106 % of control | T/C (dose: 7.5 mg/kg/injection, schedule: Q01DX001 (ip), vehicle: saline sonified): 109 % of control | T/C (dose: 12.5 mg/kg/injection, schedule: Q01DX009 (ip), vehicle: Klucel (hydroxypropylcellulose) (HPC)): 104 % of control | T/C (dose: 15.0 mg/kg/injection, schedule: Q01DX001 (ip), vehicle: saline sonified): 109 % of control | T/C (dose: 30.0 mg/kg/injection, schedule: Q01DX001 (ip), vehicle: saline sonified): 109 % of control

c1cc2c(ncn3nnnc23)[nH]1
T/C (dose: 6.25 mg/kg/injection, schedule: Q01DX009 (ip), vehicle: water): 91 % of control | T/C (dose: 12.5 mg/kg/injection, schedule: Q01DX009 (ip), vehicle: water): 107 % of control | T/C (dose: 25.0 mg/kg/injection, schedule: Q01DX009 (ip), vehicle: water): 108 % of control | T/C (dose: 50.0 mg/kg/injection, schedule: Q01DX009 (ip), vehicle: water): 109 % of control | T/C (dose: 100.0 mg/kg/injection, schedule: Q01DX009 (ip), vehicle: water): 118 % of control

CC(=O)[O][Sn]([CH2]c1ccccc1)([CH2]c1ccccc1)[CH2]c1ccccc1
T/C (dose: 0.75 mg/kg/injection, schedule: Q01DX009 (ip), vehicle: saline): 115 % of control | T/C (dose: 1.5 mg/kg/injection, schedule: Q01DX009 (ip), vehicle: saline): 87 % of control | T/C (dose: 3.0 mg/kg/injection, schedule: Q01DX009 (ip), vehicle: saline): 105 % of control | T/C (dose: 6.0 mg/kg/injection, schedule: Q01DX009 (ip), vehicle: saline): 108 % of control

OC1COCCC(O)(CNCc2ccccc2)C1O (stereo not drawn)
T/C (dose: 50.0 mg/kg/injection, schedule: Q01DX009 (ip), vehicle: saline): 98 % of control | T/C (dose: 100.0 mg/kg/injection, schedule: Q01DX009 (ip), vehicle: saline): 107 % of control

COc1ccccc1C1C2CCCC(C2=O)C(c2ccccc2OC)N1C (stereo not drawn)
T/C [10]: 98 % of control | T/C [11]: 99 % of control | T/C [12]: 99 % of control

Cc1nnc2cc3ccccc3cn12
T/C [13]: 89 % of control | T/C [14]: 97 % of control | T/C [15]: 100 % of control

CS(C)=O.CS(C)=O.CS(C)=O.CS(C)=O.[Cl][Ru][Cl]
T/C [16]: 105 % of control | T/C [10]: 97 % of control | T/C [17]: 101 % of control | T/C [11]: 99 % of control | T/C [18]: 107 % of control | T/C [12]: 92 % of control

COc1cccc2c1C(=O)c1c(O)c3c(c(O)c1C2=O)C[C@@](O)(C(C)O)C[C@@H]3OC1CC(N2CCC(OC)CC2)C(O)C(C)O1 (stereo partly drawn)
T/C (dose: 0.78 mg/kg/injection, schedule: Q04DX003 (ip), vehicle: water): 112 % of control | T/C (dose: 1.56 mg/kg/injection, schedule: Q04DX003 (ip), vehicle: water): 114 % of control | T/C (dose: 3.12 mg/kg/injection, schedule: Q04DX003 (ip), vehicle: water): 111 % of control and 117 % of control | T/C (dose: 6.25 mg/kg/injection, schedule: Q04DX003 (ip), vehicle: water): 188 % of control | T/C (dose: 12.5 mg/kg/injection, schedule: Q04DX003 (ip), vehicle: water): 158 % of control and 240 % of control | T/C (dose: 25.0 mg/kg/injection, schedule: Q04DX003 (ip), vehicle: water): 118 % of control

Nc1nnc2nc(C(C(=O)c3cccc(O)c3)c3nc4nnc(N)n4[nH]c3=O)c(=O)[nH]n12
T/C [7]: 97 % of control | T/C [8]: 106 % of control | T/C [9]: 97 % of control

Cc1c(-c2ccccc2)n[nH]c1-c1[nH]nc(-c2ccccc2)c1C
T/C [16]: 93 % of control | T/C [17]: 94 % of control | T/C [18]: 93 % of control

COC(=O)C1=CC[C@@H]2C(C(=O)O)=CO[C@@H](OC3OC(CO)C(O)C(O)C3O)[C@H]12 (stereo partly drawn)
T/C (dose: 2.8 mg/kg/injection, schedule: Q01DX005 (ip), vehicle: saline + alcohol): 101 % of control | T/C (dose: 5.5 mg/kg/injection, schedule: Q01DX005 (ip), vehicle: saline + alcohol): 99 % of control | T/C (dose: 11.0 mg/kg/injection, schedule: Q01DX005 (ip), vehicle: saline + alcohol): 108 % of control | T/C (dose: 22.0 mg/kg/injection, schedule: Q01DX005 (ip), vehicle: saline + alcohol): 100 % of control

CC(=O)N1c2ccccc2N(C(C)=O)c2nc3ccccc3nc21
T/C [1]: 100 % of control | T/C [2]: 100 % of control | T/C [3]: 100 % of control

Clc1c(Br)c(-c2ccccc2)nc2ccccc12
T/C [13]: 108 % of control | T/C [14]: 110 % of control | T/C [15]: 108 % of control

CN(C)c1cc(N(C)C)c2cc(C#N)ccc2n1
T/C [1]: 99 % of control | T/C [2]: 98 % of control | T/C [3]: 107 % of control
